Four compounds from ChEMBL document CHEMBL6074668 (J Med Chem, 2024) can be followed below.

Activity calls are given as the source filed them. The rule behind the calls is not given here.

Data set [1] deals with T1, Alpha-2C adrenergic receptor (Homo sapiens, UniProt P18825).
T1 sequence (P18825 whole entry): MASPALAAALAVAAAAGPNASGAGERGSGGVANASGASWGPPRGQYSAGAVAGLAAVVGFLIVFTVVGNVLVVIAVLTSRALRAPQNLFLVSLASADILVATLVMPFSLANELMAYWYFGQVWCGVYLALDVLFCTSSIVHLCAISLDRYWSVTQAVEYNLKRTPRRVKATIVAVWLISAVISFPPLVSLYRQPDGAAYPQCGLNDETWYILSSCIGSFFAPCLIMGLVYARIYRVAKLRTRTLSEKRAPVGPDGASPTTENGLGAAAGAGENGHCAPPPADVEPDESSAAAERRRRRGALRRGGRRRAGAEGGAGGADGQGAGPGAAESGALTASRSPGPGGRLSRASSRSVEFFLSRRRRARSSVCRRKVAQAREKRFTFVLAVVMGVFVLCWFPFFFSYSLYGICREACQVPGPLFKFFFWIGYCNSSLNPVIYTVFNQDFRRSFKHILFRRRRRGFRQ
Briefly: Binding affinity to alpha2C adrenergic receptor (unknown origin) by radioligand displacement assay. A general note: In a radioligand displacement assay an active substance lowers the binding of a labelled ligand.

For data set [2], the target named is T2, 5-hydroxytryptamine receptor 3A (Homo sapiens, UniProt P46098).
T2 sequence (P46098 whole entry): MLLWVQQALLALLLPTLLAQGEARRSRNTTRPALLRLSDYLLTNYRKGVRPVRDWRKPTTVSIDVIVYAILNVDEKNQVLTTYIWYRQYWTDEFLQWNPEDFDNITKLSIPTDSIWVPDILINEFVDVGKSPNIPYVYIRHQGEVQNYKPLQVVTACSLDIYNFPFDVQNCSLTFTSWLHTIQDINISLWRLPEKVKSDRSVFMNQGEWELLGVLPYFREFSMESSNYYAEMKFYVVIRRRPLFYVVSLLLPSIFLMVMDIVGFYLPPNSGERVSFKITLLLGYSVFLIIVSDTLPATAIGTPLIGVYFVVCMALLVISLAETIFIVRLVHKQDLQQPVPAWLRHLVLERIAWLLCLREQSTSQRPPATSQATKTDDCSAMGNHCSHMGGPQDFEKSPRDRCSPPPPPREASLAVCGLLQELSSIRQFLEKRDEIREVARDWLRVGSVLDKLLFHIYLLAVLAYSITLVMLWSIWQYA
The data set can be described thus: Binding affinity to 5HT3 receptor (unknown origin) by radioligand displacement assay.

In data set [3] the target is 5-hydroxytryptamine receptor 7 (Homo sapiens, UniProt P34969). Briefly: Binding affinity to 5HT7A receptor (unknown origin) by radioligand displacement assay.
Data set [4] is described as follows: Binding affinity to Sigma2 opioid receptor (unknown origin) by radioligand displacement assay. On the set-up: species or system Homo sapiens.
The target of data set [5] is T3, Alpha-2A adrenergic receptor (Homo sapiens, UniProt P08913).
T3 sequence (P08913 whole entry): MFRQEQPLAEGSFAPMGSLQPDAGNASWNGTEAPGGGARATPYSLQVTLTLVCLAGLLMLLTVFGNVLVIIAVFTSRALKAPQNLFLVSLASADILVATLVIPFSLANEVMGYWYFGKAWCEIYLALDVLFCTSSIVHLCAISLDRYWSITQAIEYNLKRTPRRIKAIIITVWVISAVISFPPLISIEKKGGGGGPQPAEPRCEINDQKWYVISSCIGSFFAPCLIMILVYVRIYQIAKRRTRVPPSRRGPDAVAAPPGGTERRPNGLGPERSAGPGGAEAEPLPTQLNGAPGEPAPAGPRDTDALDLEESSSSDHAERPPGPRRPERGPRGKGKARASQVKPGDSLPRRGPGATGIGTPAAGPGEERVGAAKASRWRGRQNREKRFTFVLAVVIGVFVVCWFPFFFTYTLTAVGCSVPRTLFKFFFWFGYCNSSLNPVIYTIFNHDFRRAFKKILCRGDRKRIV
Briefly: Binding affinity to alpha2A adrenergic receptor (unknown origin) by radioligand displacement assay.

In data set [6] the target is T4, Voltage-gated inwardly rectifying potassium channel KCNH2 (Homo sapiens, UniProt Q12809). Briefly: Binding affinity to hERG by radioligand displacement assay. In kind it is toxicity. (The hERG channel carries a current that helps repolarise heart muscle cells.)
Data set [7] deals with 5-hydroxytryptamine receptor 5A (Homo sapiens, UniProt P47898). The data set can be described thus: Binding affinity to 5HT5A receptor (unknown origin) by radioligand displacement assay.
The target in data set [8] is T5, Alpha-1A adrenergic receptor (Homo sapiens, UniProt P35348).
T5 sequence (P35348 whole entry): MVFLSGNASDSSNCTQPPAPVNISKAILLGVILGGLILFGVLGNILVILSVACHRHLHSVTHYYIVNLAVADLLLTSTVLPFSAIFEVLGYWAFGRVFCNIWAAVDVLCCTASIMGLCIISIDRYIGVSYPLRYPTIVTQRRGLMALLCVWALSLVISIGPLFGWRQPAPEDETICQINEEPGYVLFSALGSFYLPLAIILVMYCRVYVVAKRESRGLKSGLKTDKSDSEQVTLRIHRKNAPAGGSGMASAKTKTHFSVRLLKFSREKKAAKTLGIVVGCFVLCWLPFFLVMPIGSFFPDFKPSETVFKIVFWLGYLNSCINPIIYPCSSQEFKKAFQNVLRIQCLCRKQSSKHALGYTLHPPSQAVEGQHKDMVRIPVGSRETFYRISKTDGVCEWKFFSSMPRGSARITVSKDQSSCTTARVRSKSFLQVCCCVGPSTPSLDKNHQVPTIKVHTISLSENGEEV
The data set can be described thus: Binding affinity to alpha1A adrenergic receptor (unknown origin) by radioligand displacement assay.

The nature of data set [9]: Binding affinity to alpha7 […] receptor (unknown origin) by radioligand displacement assay. The arrangement: species or system Homo sapiens.
The target in data set [10] is T6, Alpha-1B adrenergic receptor (Homo sapiens, UniProt P35368).
T6 sequence (P35368 whole entry): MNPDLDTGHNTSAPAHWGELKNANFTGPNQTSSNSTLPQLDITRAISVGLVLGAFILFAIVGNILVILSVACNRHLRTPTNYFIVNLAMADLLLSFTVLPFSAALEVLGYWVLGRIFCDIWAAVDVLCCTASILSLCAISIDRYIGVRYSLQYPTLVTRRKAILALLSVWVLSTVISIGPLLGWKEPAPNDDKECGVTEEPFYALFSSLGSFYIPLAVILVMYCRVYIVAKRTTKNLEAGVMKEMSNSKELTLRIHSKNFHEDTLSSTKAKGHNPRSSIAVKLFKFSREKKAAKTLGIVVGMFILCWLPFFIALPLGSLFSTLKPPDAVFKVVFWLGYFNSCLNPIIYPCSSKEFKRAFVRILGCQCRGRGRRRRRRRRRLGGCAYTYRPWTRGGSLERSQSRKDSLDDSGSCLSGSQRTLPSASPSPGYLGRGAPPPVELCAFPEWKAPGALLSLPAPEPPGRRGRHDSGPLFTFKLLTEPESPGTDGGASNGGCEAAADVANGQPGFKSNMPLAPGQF
Briefly: Binding affinity to alpha1B adrenergic receptor (unknown origin) by radioligand displacement assay.

For data set [11], the target named is T7, Alpha-2B adrenergic receptor (Homo sapiens, UniProt P18089).
T7 sequence (P18089 whole entry): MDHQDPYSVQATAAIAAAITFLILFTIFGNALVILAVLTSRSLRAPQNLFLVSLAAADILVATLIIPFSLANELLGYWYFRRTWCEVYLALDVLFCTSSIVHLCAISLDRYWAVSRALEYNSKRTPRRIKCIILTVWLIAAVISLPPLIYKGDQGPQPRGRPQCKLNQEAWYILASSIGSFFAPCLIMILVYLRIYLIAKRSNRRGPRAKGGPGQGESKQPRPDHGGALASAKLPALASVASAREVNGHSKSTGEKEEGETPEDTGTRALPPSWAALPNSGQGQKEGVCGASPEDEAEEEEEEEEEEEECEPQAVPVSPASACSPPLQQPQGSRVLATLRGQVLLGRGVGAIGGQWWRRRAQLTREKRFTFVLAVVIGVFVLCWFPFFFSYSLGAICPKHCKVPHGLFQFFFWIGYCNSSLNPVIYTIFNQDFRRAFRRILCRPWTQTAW
Briefly: Binding affinity to alpha2B adrenergic receptor (unknown origin) by radioligand displacement assay.

The species entered for a further data set is Homo sapiens. Briefly: Selectivity index, ratio of EC50 for agonist activity at human mu opioid receptor expressed in CHO-K1 cells to EC50 for agonist activity at human kappa opioid receptor expressed in CHO-K1 cells. Format: cell-based.
The target of data set [12] is T8, Kappa-type opioid receptor (Homo sapiens, UniProt P41145). Briefly: Agonist activity at human kappa opioid receptor expressed in CHO-K1 cells assessed as inhibition of forskolin-stimulated cAMP accumulation by HitHunter assay based luminescence analysis relative to control. Format: functional, cell-based. The following applies: filed as agonist.
The target in data set [13] is T8, Kappa-type opioid receptor. Briefly: Agonist activity at human kappa opioid receptor expressed in CHO-K1 cells assessed as inhibition of forskolin-stimulated cAMP accumulation by HitHunter assay based luminescence analysis. Format: functional, cell-based. A general note: Cyclic AMP is a second messenger, typically raised through Gs and lowered through Gi signalling.

Data set [14] concerns the target Delta-type opioid receptor (Homo sapiens) (UniProt P41143). Briefly: Agonist activity at human delta opioid receptor expressed in CHO-K1 cells assessed as inhibition of forskolin-stimulated cAMP accumulation at <1 uM by HitHunter assay based luminescence analysis. In kind it is functional, cell-based.
Data set [15] addresses T9, Mu-type opioid receptor (Homo sapiens, UniProt P35372). Briefly: Agonist activity at human mu opioid receptor expressed in CHO-K1 cells assessed as inhibition of forskolin-stimulated cAMP accumulation by HitHunter assay based luminescence analysis. In kind it is functional, cell-based.
The target in data set [16] is T9, Mu-type opioid receptor. The data set can be described thus: Agonist activity at human mu opioid receptor expressed in CHO-K1 cells assessed as inhibition of forskolin-stimulated cAMP accumulation by HitHunter assay based luminescence analysis relative to control. In kind it is functional, cell-based.
Data set [17] addresses T4, Voltage-gated inwardly rectifying potassium channel KCNH2. Briefly: Binding affinity to hERG at 10 uM by radioligand displacement assay. Format: toxicity.
Data set [18] deals with T8, Kappa-type opioid receptor. The data set can be described thus: Agonist activity at kappa opioid receptor (unknown origin) assessed as beta arrestin2 recruitment at 3 uM by PRESTO-Tango assay. Format: functional. The note with it: filed as agonist.
Data set [19] deals with T9, Mu-type opioid receptor.
Description: Binding affinity to mu opioid receptor (unknown origin) by radioligand displacement assay
Data set [20] deals with T8, Kappa-type opioid receptor. Briefly: Binding affinity to kappa opioid receptor (unknown origin) by radioligand displacement assay.
Data set [21] concerns the target T8, Kappa-type opioid receptor. Briefly: Agonist activity at kappa opioid receptor (unknown origin) expressed in human U2OS cells assessed as beta arrestin2 recruitment at <10 uM incubated for 30 mins by PathHunter assay. In kind it is functional, cell-based. The following applies: filed as agonist.

T8 sequence (P41145 whole entry): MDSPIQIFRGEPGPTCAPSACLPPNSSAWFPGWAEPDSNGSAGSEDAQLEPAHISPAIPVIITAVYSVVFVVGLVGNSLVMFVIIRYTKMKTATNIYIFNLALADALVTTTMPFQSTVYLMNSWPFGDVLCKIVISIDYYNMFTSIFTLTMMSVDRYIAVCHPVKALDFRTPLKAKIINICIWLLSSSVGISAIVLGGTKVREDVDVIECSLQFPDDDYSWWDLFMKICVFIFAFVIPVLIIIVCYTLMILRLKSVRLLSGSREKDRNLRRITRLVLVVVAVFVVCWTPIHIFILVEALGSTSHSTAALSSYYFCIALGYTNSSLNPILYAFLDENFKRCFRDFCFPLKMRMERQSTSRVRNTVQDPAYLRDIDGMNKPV
T9 sequence (P35372 whole entry): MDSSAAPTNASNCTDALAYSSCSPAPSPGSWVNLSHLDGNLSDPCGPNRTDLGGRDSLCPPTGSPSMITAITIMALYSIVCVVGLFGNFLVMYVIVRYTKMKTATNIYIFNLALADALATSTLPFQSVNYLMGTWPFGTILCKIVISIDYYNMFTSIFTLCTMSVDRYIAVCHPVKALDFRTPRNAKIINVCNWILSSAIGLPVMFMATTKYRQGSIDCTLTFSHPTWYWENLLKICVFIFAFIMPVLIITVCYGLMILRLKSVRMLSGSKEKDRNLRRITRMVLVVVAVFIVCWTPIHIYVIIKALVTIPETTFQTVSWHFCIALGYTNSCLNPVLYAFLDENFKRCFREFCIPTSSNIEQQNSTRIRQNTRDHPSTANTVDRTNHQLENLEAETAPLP
Sequence of 5-hydroxytryptamine receptor 5A (P47898 whole entry): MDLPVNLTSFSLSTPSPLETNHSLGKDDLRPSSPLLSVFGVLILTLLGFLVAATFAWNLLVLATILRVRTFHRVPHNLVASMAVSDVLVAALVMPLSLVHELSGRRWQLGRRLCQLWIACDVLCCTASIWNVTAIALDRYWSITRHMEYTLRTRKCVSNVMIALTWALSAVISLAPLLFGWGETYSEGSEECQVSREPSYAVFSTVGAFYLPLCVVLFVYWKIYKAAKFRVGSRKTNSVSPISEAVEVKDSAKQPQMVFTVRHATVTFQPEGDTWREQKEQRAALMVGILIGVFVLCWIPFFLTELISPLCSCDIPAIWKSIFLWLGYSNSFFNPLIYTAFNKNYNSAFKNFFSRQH
Sequence of 5-hydroxytryptamine receptor 7 (P34969 whole entry): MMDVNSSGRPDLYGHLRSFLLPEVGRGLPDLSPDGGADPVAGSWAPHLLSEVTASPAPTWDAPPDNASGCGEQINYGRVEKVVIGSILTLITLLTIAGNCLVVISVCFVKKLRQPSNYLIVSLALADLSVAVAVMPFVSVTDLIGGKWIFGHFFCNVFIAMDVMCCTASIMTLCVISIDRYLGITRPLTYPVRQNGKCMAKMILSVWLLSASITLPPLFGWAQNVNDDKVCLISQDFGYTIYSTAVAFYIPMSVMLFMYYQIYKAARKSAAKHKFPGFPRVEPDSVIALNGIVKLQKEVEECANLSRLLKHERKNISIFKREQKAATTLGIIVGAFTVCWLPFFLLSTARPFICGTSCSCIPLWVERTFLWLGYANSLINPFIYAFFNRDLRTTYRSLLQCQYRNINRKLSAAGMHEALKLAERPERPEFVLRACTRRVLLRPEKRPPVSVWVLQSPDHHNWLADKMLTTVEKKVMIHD
T4 sequence (Q12809 whole entry): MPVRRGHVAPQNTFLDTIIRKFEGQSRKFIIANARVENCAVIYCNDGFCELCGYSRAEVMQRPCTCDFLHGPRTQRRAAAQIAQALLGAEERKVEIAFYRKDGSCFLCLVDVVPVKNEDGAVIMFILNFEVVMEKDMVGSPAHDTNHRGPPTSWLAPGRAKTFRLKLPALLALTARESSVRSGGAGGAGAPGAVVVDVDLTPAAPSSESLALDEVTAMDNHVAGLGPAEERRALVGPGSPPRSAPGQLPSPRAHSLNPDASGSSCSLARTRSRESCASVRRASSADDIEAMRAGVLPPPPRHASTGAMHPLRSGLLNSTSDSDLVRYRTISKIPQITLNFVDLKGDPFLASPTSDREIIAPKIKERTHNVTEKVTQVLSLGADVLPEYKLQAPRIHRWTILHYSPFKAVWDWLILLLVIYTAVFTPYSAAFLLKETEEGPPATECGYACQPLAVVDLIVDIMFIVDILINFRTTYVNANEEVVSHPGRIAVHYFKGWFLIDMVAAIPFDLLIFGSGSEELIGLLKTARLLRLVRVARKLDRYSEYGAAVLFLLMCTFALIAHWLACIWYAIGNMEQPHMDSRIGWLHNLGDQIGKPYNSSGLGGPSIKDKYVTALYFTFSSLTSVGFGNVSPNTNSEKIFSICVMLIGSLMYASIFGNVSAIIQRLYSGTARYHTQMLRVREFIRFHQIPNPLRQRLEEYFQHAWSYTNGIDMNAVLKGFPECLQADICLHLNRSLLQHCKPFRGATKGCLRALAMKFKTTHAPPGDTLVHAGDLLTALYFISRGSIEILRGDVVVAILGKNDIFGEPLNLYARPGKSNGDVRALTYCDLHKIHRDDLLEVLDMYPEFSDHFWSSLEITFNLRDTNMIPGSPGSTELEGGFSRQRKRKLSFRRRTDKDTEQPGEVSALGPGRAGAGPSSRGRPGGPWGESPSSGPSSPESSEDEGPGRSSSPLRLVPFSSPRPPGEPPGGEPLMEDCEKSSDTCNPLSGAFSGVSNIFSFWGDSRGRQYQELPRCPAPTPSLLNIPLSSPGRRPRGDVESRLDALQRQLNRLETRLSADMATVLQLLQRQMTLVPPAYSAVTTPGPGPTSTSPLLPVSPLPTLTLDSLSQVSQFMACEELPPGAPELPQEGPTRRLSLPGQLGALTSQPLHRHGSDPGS
Sequence of Delta-type opioid receptor (Homo sapiens) (P41143 whole entry): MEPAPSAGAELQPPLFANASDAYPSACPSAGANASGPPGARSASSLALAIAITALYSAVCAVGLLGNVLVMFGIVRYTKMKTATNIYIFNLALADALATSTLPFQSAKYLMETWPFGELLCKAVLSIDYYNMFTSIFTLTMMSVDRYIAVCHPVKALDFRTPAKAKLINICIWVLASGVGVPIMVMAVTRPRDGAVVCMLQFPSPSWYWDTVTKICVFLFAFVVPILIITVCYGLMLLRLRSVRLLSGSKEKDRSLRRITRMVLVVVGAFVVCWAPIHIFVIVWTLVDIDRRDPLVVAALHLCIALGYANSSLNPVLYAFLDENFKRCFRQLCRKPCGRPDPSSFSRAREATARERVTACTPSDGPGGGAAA

For the compound `C/C=C1/CN2CC[C@]34C(=C(C(=O)OC)[C@H]1C[C@H]23)Nc1ccc(Br)cc14`, the Ki (in general, the dissociation constant of the complex between target and ligand, obtained from inhibition or displacement) in data set [1] is 2.91 µM; in data set [2], 0.21 µM; in data set [3], 1.52 µM; in [4] it was 2.62 µM; in data set [5], > 10 µM; in data set [6] it was 1.34 µM. The Ki in data set [7] came out at 0.721 µM; in data set [8] it was 1 µM; in [9], 7 µM; in [10], 2.88 µM; in data set [11] it was 1.25 µM.

On to `C/C=C1/CN2CC[C@]34C(=C(C(=O)OC)[C@H]1C[C@H]23)Nc1ccc([N+](=O)[O-])cc14`, for which, in the data set listed under Homo sapiens, the Ratio EC50 is 25. Moreover, the maximum response (Emax) (usually the maximal effect, on the per cent scale that the assay sets) in data set [12] was 96%; at Mu-type opioid receptor [16], < 10%. The EC50 (in general, the concentration that produces a half-maximal response) was 0.16 µM in data set [13] and 4 µM at Mu-type opioid receptor [15]. Moreover, in [14], the result was inactive.

On to `C/C=C1/CN2CC[C@]34C(=C(C(=O)OC)[C@H]1C[C@H]23)Nc1ccccc14` [AKUAMMICINE], for which the Activity in data set [17] is recorded as < 50%. In [12], the maximum response (Emax) stood at 91%. Further, the Ki in [1] came out at 4.79 µM; in data set [2], 5.49 µM; in data set [3], 1.41 µM; at Mu-type opioid receptor [19] it was 3.73 µM; in data set [7], 2.93 µM; in data set [20], 0.166 µM. This compound also returned an inhibition constant (Ki) in data set [11] of 1.21 µM. The outcome in [18] was Active. The concentration for a half-maximal effect (EC50) in [13] is 1.2 µM.

Regarding `C/C=C1/CN2CC[C@]34C(=C(C(=O)OC)[C@H]1C[C@H]23)Nc1ccc(-c2ccoc2)cc14`, the Emax in data set [12] worked out at 102%; on Mu-type opioid receptor [16] (filed as agonist) it was 99%. Besides, in data set [14], the result was inactive. The Activity entry in [21] is “Active; Less Efficacious Than U50488”.
